# Measured values reported in ChEMBL document CHEMBL4507302, “Data for DCP probe TP-020” (2021).
# Key:
# [1] = biological target: Activin receptor type-2B (Homo sapiens) (UniProt Q13705); details: Compound concentration 1000.0 nM
# [2] = biological target: RAC-beta serine/threonine-protein kinase (Homo sapiens) (UniProt P31751); details: Compound concentration 1000.0 nM
# [3] = tested on: Serine/threonine-protein kinase B-raf (Homo sapiens), P15056 [V600E]; details: Compound concentration 1000.0 nM
# [4] = biological target: Serine/threonine-protein kinase BRSK1 (Homo sapiens) (UniProt Q8TDC3); details: Compound concentration 1000.0 nM
# [5] = biological target: Serine/threonine-protein kinase BRSK2 (Homo sapiens) (UniProt Q8IWQ3); details: Compound concentration 1000.0 nM
# [6] = biological target: Tyrosine-protein kinase BTK (Homo sapiens) (UniProt Q06187); details: Compound concentration 1000.0 nM
# [7] = biological target: Mitotic checkpoint serine/threonine-protein kinase BUB1 (Homo sapiens) (UniProt O43683); details: Compound concentration 1000.0 nM
# [8] = biological target: Calcium/calmodulin-dependent protein kinase type II subunit gamma (Homo sapiens) (UniProt Q13555); details: Compound concentration 1000.0 nM
# [9] = biological target: Calcium/calmodulin-dependent protein kinase kinase 1 (Homo sapiens) (UniProt Q8N5S9); details: Compound concentration 1000.0 nM
# [10] = biological target: Dual specificity protein kinase CLK2 (Homo sapiens) (UniProt P49760); details: Compound concentration 1000.0 nM
# [11] = tested on: Epidermal growth factor receptor (Homo sapiens), P00533 [UNDEFINED MUTATION]; details: Compound concentration 1000.0 nM
# [12] = tested on: Receptor-type tyrosine-protein kinase FLT3 (Homo sapiens), P36888 [UNDEFINED MUTATION]; details: Compound concentration 1000.0 nM
# [13] = biological target: Receptor-type tyrosine-protein kinase FLT3 (Homo sapiens) (UniProt P36888); details: Compound concentration 1000.0 nM
# [14] = biological target: Homeodomain-interacting protein kinase 1 (Homo sapiens) (UniProt Q86Z02); details: Compound concentration 1000.0 nM
# [15] = biological target: Mitogen-activated protein kinase 10 (Homo sapiens) (UniProt P53779); details: Compound concentration 1000.0 nM
# [16] = tested on: Mast/stem cell growth factor receptor Kit (Homo sapiens), P10721 [A829P]; details: Compound concentration 1000.0 nM
# [17] = biological target: Tyrosine-protein kinase Lyn (Homo sapiens) (UniProt P07948); details: Compound concentration 1000.0 nM
# [18] = biological target: Mitogen-activated protein kinase kinase kinase 3 (Homo sapiens) (UniProt Q99759); details: Compound concentration 1000.0 nM
# [19] = biological target: Mitogen-activated protein kinase kinase kinase kinase 5 (Homo sapiens) (UniProt Q9Y4K4); details: Compound concentration 1000.0 nM
# [20] = biological target: MAP kinase-interacting serine/threonine-protein kinase 2 (Homo sapiens) (UniProt Q9HBH9); details: Compound concentration 1000.0 nM
# [21] = biological target: Serine/threonine-protein kinase 3 (Homo sapiens) (UniProt Q13188); details: Compound concentration 1000.0 nM
# [22] = biological target: Serine/threonine-protein kinase mTOR (Homo sapiens) (UniProt P42345); details: Compound concentration 1000.0 nM
# [23] = biological target: Serine/threonine-protein kinase OSR1 (Homo sapiens) (UniProt O95747); details: Compound concentration 1000.0 nM
# [24] = biological target: Mitogen-activated protein kinase 12 (Homo sapiens) (UniProt P53778); details: Compound concentration 1000.0 nM
# [25] = tested on: Phosphatidylinositol 4,5-bisphosphate 3-kinase catalytic subunit alpha isoform (Homo sapiens), P42336 [C420R]; details: Compound concentration 1000.0 nM
# [26] = biological target: Phosphatidylinositol 4,5-bisphosphate 3-kinase catalytic subunit beta isoform (Homo sapiens) (UniProt P42338); details: Compound concentration 1000.0 nM
# [27] = biological target: Phosphatidylinositol 4-kinase beta (Homo sapiens) (UniProt Q9UBF8); details: Compound concentration 1000.0 nM
# [28] = biological target: Phosphatidylinositol 4-phosphate 5-kinase type-1 gamma (Homo sapiens) (UniProt O60331); details: Compound concentration 1000.0 nM
# [29] = biological target: Phosphatidylinositol 5-phosphate 4-kinase type-2 beta (Homo sapiens) (UniProt P78356); details: Compound concentration 1000.0 nM
# [30] = biological target: Serine/threonine-protein kinase N1 (Homo sapiens) (UniProt Q16512); details: Compound concentration 1000.0 nM
# [31] = biological target: Serine/threonine-protein kinase PknB (Mycobacterium tuberculosis) (UniProt P9WI81); details: Compound concentration 1000.0 nM
# [32] = biological target: Serine/threonine-protein kinase RIO1 (Homo sapiens) (UniProt Q9BRS2); details: Compound concentration 1000.0 nM
# [33] = biological target: Serine/threonine-protein kinase RIO2 (Homo sapiens) (UniProt Q9BVS4); details: Compound concentration 1000.0 nM
# [34] = biological target: TGF-beta receptor type-2 (Homo sapiens) (UniProt P37173); details: Compound concentration 1000.0 nM
# [35] = biological target: Serine/threonine-protein kinase TNNI3K (Homo sapiens) (UniProt Q59H18); details: Compound concentration 1000.0 nM
# [36] = biological target: Tyrosine-protein kinase receptor TYRO3 (Homo sapiens) (UniProt Q06418); details: Compound concentration 1000.0 nM
# [37] = biological target: Serine/threonine-protein kinase WNK1 (Homo sapiens) (UniProt Q9H4A3); details: Compound concentration 1000.0 nM
# [38] = biological target: Mitogen-activated protein kinase kinase kinase 20 (Homo sapiens) (UniProt Q9NYL2); details: Compound concentration 1000.0 nM
# [39] = biological target: 5-hydroxytryptamine receptor 5A (Homo sapiens) (UniProt P47898); details: Compound concentration 10.0 uM
# [40] = biological target: D(1A) dopamine receptor (Homo sapiens) (UniProt P21728); details: Compound concentration 10.0 uM
# [41] = biological target: D(2) dopamine receptor (Homo sapiens) (UniProt P14416); details: Compound concentration 10.0 uM
# [42] = biological target: Sodium-dependent dopamine transporter (Homo sapiens) (UniProt Q01959); details: Compound concentration 10.0 uM
# [43] = biological target: GABA-A receptor; anion channel (Rattus norvegicus) (UniProt O09028+P15431+P18506+P18508+P19969+P20236+P23574+P23576+P28471+P28473+P30191+P62813+P63079+P63138+Q91ZM7+Q9ES14); details: Compound concentration 10.0 uM
# Chain of Phosphatidylinositol 5-phosphate 4-kinase type-2 beta (Homo sapiens) (P78356 whole entry): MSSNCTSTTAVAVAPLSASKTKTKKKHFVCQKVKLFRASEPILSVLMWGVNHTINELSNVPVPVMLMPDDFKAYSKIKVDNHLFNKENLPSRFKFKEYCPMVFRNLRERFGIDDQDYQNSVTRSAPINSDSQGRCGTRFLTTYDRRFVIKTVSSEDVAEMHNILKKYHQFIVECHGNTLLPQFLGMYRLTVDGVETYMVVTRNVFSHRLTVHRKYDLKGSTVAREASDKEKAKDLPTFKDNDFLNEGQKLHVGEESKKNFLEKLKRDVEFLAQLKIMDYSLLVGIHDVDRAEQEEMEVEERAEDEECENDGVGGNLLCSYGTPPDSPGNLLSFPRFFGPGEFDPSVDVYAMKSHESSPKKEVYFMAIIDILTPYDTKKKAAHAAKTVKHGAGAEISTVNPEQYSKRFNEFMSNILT
# Chain of Epidermal growth factor receptor (Homo sapiens), P00533 [UNDEFINED MUTATION] (P00533 whole entry, looked up, change not shown): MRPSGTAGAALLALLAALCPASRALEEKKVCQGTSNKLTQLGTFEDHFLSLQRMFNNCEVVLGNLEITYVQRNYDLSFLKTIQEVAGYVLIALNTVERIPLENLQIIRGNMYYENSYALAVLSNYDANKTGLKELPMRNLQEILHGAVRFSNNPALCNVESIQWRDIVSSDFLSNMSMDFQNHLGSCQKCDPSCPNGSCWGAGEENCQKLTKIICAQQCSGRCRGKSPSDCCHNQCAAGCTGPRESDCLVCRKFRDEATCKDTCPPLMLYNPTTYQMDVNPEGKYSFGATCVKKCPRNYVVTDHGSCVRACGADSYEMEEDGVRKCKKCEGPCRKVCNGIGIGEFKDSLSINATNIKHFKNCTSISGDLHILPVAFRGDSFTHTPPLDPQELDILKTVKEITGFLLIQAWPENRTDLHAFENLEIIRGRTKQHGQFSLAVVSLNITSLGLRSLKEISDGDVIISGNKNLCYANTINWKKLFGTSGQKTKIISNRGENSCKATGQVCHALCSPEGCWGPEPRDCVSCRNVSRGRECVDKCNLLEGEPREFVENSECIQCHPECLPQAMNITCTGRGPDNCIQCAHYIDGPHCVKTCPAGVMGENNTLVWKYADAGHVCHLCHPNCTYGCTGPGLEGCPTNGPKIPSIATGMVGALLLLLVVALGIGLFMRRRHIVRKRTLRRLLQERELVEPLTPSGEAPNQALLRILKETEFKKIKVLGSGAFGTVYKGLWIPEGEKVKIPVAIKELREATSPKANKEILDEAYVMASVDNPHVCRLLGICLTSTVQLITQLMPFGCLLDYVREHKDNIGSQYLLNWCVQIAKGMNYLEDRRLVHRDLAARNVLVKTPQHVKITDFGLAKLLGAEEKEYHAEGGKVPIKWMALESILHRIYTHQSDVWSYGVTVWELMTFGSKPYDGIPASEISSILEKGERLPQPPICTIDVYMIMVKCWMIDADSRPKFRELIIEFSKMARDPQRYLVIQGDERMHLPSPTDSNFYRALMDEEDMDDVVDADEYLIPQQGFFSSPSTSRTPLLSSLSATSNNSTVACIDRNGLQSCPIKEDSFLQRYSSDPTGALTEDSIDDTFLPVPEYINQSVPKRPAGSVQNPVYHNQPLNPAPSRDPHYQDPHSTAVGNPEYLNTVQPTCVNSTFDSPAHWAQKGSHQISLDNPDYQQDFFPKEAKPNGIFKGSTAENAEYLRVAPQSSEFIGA
# Chain of Serine/threonine-protein kinase WNK1 (Homo sapiens) (Q9H4A3 whole entry, looked up): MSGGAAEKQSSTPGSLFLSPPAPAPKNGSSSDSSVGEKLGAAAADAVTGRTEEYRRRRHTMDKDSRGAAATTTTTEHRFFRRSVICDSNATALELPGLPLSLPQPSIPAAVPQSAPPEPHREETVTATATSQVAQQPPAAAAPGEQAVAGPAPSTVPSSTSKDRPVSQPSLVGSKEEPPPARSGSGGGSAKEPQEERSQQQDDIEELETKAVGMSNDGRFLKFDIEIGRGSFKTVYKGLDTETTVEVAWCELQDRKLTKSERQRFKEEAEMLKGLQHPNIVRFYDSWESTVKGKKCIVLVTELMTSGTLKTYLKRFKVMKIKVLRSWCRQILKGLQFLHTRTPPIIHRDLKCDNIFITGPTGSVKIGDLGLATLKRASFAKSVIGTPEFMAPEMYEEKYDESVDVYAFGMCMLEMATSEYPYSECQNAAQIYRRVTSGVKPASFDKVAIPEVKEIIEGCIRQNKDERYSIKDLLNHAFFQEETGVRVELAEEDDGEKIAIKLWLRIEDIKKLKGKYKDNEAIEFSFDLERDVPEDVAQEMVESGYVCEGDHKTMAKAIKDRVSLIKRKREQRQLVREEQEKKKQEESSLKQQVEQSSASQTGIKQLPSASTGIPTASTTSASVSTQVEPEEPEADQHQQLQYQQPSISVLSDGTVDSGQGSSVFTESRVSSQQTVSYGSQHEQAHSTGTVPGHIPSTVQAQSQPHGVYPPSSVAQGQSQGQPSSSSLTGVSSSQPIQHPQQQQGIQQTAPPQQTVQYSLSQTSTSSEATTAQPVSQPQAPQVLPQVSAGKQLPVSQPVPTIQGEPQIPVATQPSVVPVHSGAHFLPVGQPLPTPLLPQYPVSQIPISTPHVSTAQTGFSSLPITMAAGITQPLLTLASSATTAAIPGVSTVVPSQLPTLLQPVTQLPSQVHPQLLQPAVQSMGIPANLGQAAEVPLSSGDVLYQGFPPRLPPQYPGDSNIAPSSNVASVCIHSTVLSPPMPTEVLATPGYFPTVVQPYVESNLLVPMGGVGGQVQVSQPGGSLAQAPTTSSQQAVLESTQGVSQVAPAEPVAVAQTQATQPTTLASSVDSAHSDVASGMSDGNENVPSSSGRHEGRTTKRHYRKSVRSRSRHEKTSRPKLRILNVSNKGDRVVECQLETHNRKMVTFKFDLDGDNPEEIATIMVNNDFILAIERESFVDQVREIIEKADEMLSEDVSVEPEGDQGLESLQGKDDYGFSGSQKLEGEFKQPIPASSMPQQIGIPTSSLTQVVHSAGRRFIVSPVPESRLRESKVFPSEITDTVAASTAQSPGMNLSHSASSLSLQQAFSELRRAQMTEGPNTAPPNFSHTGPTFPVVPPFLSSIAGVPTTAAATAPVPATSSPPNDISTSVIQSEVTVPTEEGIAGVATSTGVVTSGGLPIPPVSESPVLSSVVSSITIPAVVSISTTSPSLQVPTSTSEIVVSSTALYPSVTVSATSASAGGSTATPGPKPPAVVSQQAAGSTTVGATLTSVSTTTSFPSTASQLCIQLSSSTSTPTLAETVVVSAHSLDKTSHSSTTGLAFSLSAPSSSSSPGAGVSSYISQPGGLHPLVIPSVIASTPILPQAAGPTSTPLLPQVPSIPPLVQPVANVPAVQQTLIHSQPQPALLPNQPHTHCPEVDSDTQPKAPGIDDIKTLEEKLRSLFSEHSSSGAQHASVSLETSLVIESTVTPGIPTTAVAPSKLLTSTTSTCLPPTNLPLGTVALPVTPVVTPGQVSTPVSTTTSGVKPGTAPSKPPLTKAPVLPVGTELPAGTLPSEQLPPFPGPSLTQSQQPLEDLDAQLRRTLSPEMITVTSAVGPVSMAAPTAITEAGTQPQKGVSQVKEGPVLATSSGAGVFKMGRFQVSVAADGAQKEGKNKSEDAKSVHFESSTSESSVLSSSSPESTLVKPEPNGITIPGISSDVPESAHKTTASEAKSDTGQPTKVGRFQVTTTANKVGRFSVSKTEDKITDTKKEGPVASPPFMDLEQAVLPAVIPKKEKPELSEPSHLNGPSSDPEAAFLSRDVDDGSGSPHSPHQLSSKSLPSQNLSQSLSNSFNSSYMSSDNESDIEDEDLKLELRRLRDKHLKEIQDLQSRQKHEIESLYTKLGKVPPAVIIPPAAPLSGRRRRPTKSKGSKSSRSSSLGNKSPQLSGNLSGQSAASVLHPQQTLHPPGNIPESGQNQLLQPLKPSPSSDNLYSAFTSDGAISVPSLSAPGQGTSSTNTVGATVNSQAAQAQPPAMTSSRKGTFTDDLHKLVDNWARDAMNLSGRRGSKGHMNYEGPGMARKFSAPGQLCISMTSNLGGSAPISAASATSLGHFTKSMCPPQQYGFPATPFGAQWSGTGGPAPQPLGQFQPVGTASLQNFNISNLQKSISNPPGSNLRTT
# Chain of Serine/threonine-protein kinase TNNI3K (Homo sapiens) (Q59H18 whole entry): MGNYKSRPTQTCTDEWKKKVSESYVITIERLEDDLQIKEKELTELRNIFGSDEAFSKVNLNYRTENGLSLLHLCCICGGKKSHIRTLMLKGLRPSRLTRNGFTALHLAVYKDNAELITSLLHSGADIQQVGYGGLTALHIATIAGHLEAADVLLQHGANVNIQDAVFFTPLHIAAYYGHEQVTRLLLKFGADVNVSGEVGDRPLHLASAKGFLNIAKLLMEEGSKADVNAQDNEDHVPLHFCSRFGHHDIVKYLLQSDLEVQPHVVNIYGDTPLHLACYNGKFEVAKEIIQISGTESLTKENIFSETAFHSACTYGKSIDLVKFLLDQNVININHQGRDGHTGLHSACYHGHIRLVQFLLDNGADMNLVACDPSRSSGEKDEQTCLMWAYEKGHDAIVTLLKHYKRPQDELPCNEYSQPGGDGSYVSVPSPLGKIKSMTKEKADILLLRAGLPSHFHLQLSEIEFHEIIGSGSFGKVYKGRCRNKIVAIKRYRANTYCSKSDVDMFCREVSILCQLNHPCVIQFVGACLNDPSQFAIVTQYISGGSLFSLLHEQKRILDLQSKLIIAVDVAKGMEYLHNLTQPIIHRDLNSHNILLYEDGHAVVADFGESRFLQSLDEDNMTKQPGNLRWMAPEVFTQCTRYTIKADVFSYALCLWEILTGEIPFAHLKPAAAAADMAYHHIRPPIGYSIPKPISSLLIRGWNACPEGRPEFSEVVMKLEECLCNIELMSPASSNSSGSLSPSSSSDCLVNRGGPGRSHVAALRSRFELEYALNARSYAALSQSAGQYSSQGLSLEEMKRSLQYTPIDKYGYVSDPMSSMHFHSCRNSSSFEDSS
smiles,measurement,setting,value
Cn1nc(C(F)(F)F)cc1-c1cnc(N2CCc3cc(S(=O)(=O)Nc4c(F)cc(Cl)cc4F)cc(N4CCCC4=O)c32)nc1 [TP-020],residual activity,[1],87%
same,residual activity,[2],100%
same,residual activity,[3],100%
same,residual activity,[4],100%
same,residual activity,[5],73%
same,residual activity,[6],85%
same,residual activity,[7],87%
same,residual activity,[8],95%
same,residual activity,[9],98%
same,residual activity,[10],86%
same,residual activity,[11],100%
same,residual activity,[12],96%
same,residual activity,[13],100%
same,residual activity,[14],87%
same,residual activity,[15],100%
same,residual activity,[16],80%
same,residual activity,[17],100%
same,residual activity,[18],89%
same,residual activity,[19],88%
same,residual activity,[20],94%
same,residual activity,[21],90%
same,residual activity,[22],78%
same,residual activity,[23],99%
same,residual activity,[24],83%
same,residual activity,[25],76%
same,residual activity,[26],85%
same,residual activity,[27],77%
same,residual activity,[28],93%
same,residual activity,[29],100%
same,residual activity,[30],100%
same,residual activity,[31],100%
same,residual activity,[32],96%
same,residual activity,[33],89%
same,residual activity,[34],81%
same,residual activity,[35],65%
same,residual activity,[36],100%
same,residual activity,[37],98%
same,residual activity,[38],98%
same,inhibition,[39],7.89%
same,inhibition,[40],-6.95%
same,inhibition,[41],-0.24%
same,inhibition,[42],14.5%
same,inhibition,[43],35.9%
Nc1cnc(N2CCc3cc(S(=O)(=O)Nc4c(F)cc(Cl)cc4F)cc(N4CCCC4=O)c32)nc1,residual activity,[1],80%
same,residual activity,[2],100%
same,residual activity,[3],100%
same,residual activity,[4],100%
same,residual activity,[5],80%
same,residual activity,[6],100%
same,residual activity,[7],100%
same,residual activity,[8],100%
same,residual activity,[9],100%
same,residual activity,[10],100%
same,residual activity,[11],100%
same,residual activity,[12],92%
same,residual activity,[13],91%
same,residual activity,[14],91%
same,residual activity,[15],94%
same,residual activity,[16],100%
same,residual activity,[17],88%
same,residual activity,[18],97%
same,residual activity,[19],73%
same,residual activity,[20],100%
same,residual activity,[21],96%
same,residual activity,[22],100%
same,residual activity,[23],75%
same,residual activity,[24],100%
same,residual activity,[25],84%
same,residual activity,[26],87%
same,residual activity,[27],93%
same,residual activity,[28],75%
same,residual activity,[29],100%
same,residual activity,[30],95%
same,residual activity,[31],96%
same,residual activity,[32],100%
same,residual activity,[33],89%
same,residual activity,[34],92%
same,residual activity,[35],49%
same,residual activity,[36],100%
same,residual activity,[37],100%
same,residual activity,[38],95%
same,inhibition,[39],-4.87%
same,inhibition,[40],-8.35%
same,inhibition,[41],-0.42%
same,inhibition,[42],20.2%
same,inhibition,[43],-1.96%
